Laboratory results taken from patent US9132084B2, “Methods for administration and formulations for the treatment of regional adipose tissue” (NEOTHETICS, INC., priority 2009, dated 2015).

Experiment: Plasma pharmacokinetics following a single intravenous and subcutaneous injection of a combination of formoterol and budesonide
Details: for AUC(0-inf): AUCinf; for bioavailability: F (bioavailability); for concentration at 0.0333 hr: male 1-0771, 0.0333 hr; for concentration at 0.0833 hr: male 1-0771, 0.0833 hr; for concentration at 0.167 hr: male 1-0771, 0.167 hr; for concentration at 0.333 hr: male 1-0771, 0.333 hr; for concentration at 0.5 hr: male 1-0771, 0.500 hr; for concentration at 0.75 hr: male 1-0771, 0.750 hr; for concentration at 1 hr: male 1-0771, 1.00 hr; for concentration at 2 hr: male 1-0771, 2.00 hr; for concentration at 4 hr: male 1-0771, 4.00 hr; for concentration at 8 hr: male 1-0771, 8.00 hr; for concentration at 24 hr: male 1-0771, 24.0 hr
Experimental: Formoterol fumarate dehydrate and budesonide were formulated in 2% PEG-400 in saline. 1 male and 1 female non-naive Gottingen minipigs (8 to 12 kg upon receipt per protocol) were utilized. The animals were housed individually.
Each minipig received a single IV injection of the combined formoterol and budesonide formulation followed by testing of the SC doses. Each dose was separated by at least a 3-day washout period. The IV dose was administered by slow bolus (1 minute; 0.017 hr) into the marginal ear vein, whereas the first SC dose was administered as a bolus injection along the back (neck-region) where there was a longitudinal fat depot. The second SC dose was distributed in 5 separate proximal SC injections separated by approximately 2 cm. Blood samples (approximately 4 mL) were collected via the branchiocephalic plexus at pre-dose and at 2, 5, 10, 20, 30 and 45 minutes, and at 1, 2, 4, 8 and 24 hr post-dose. Blood samples were placed in tubes containing K2-EDTA as the anticoagulant. Samples were processed to plasma by centrifugation and stored frozen at approximately −70° C. (+/−15° C.) until shipment for analysis.
Plasma samples were analyzed for formoterol and budesonide using a qualified liquid chromatography/mass spectrometry/mass mass spectrometry (LC/MS/MS) method. The lower limit of quantitation (LLOQ) was 1.00 pg/mL for formoterol and 25.0 pg/mL for budesonide.
Non-compartmental pharmacokinetic parameters were calculated using WinNonlin 5.2 software, NCA model 202, IV infusion input for the IV data and NCA model 200, extravascular input for the SC data. Individual plasma concentrations for each animal were used in the calculation of pharmacokinetic parameters. Nominal collection times and doses were used in the calculations. The area under the plasma concentration-time curve (AUC) was calculated using linear trapezoidal approximation (linear/log interpolation). Concentration values below the assay limit of quantitation were set to zero for calculations. The maximum plasma concentration (Cmax) and the time of its occurrence (Tmax) were verified by inspection. The half-life (t1/2) values were calculated using the last 3 plasma concentrations with nonzero values, if data permitted.

[1] = male, Gottingen, minipig, in vivo, formoterol 0.4 μg/kg SC1 single site, combination, male 1-0771
[2] = male, Gottingen, minipig, in vivo, formoterol 0.4 μg/kg SC5 (5 sites), combination, male 1-0771
[3] = male, Gottingen, minipig, in vivo, Plasma concentration of formoterol, SC1 0.4 μg/kg, combination
[4] = male, Gottingen, minipig, in vivo, Plasma concentration of formoterol, SC5 0.4 μg/kg, combination
[5] = male, Gottingen, minipig, in vivo, iv, 0.4 ug/kg
[6] = male, Gottingen, minipig, in vivo, iv, 0.4 ug/kg, formoterol 0.4 μg/kg IV in combination with budesonide, male 1-0771
[7] = male, Gottingen, minipig, in vivo, iv, Plasma concentration of formoterol, IV 0.4 μg/kg, combination

COc1ccc(CC(C)NCC(O)c2ccc(O)c(NC=O)c2)cc1 (centres unmarked) [Formoterol, formoterol]
tlast (formoterol 0.4 μg/kg IV in combination with budesonide, male 1-0771): 8.00 h | tlast (formoterol 0.4 μg/kg SC1 single site, combination, female 2-0623): 8.00 h | tlast (formoterol 0.4 μg/kg SC1 single site, combination, male 1-0771): 24.0 h | tlast (formoterol 0.4 μg/kg SC5 (5 sites), combination, female 2-0623): 24.0 h | tlast (formoterol 0.4 μg/kg SC5 (5 sites), combination, male 1-0771): 24.0 h | partition ratio (plasma Cmax subcutaneous / intravenous) (formoterol with budesonide in about 2% PEG-400 in saline): 0.5 | AUC(0-inf) [1]: 0.627 ng·h/mL | AUC(0-inf) [2]: 0.579 ng·h/mL | Cmax [1]: 0.378 ng/mL | Cmax [2]: 0.217 ng/mL | bioavailability [1]: 238% | bioavailability [2]: 219% | concentration at 0 hr (male, Gottingen, minipig, in vivo, Plasma concentration of formoterol, SC1 0.4 μg/kg, combination, male 1-0771, 0 hr): 0.00463 ng/mL | concentration at 0.0333 hr [3]: 0.378 ng/mL | concentration at 0.0833 hr [3]: 0.294 ng/mL | concentration at 0.167 hr [3]: 0.147 ng/mL | concentration at 0.333 hr [3]: 0.121 ng/mL | concentration at 0.5 hr [3]: 0.161 ng/mL | concentration at 0.75 hr [3]: 0.079 ng/mL | concentration at 1 hr [3]: 0.0833 ng/mL | concentration at 2 hr [3]: 0.0822 ng/mL | concentration at 4 hr [3]: 0.0422 ng/mL | concentration at 8 hr [3]: 0.0152 ng/mL | concentration at 24 hr [3]: 0.00287 ng/mL | concentration at 0.0333 hr [4]: 0.133 ng/mL | concentration at 0.0833 hr [4]: 0.216 ng/mL | concentration at 0.167 hr [4]: 0.217 ng/mL | concentration at 0.333 hr [4]: 0.15 ng/mL | concentration at 0.5 hr [4]: 0.0938 ng/mL | concentration at 0.75 hr [4]: 0.0941 ng/mL | concentration at 1 hr [4]: 0.0801 ng/mL | concentration at 2 hr [4]: 0.0711 ng/mL | concentration at 4 hr [4]: 0.0359 ng/mL | concentration at 8 hr [4]: 0.0181 ng/mL | concentration at 24 hr [4]: 0.0013 ng/mL | Tmax [1]: 0.0333 h | Tmax [2]: 0.167 h | Vd [5]: 3.94 L/kg | clearance [5]: 1.52 L/h/kg | AUC(0-inf) [6]: 0.264 ng·h/mL | Cmax [6]: 0.41 ng/mL | Tmax [6]: 0.0333 h | half-life (male, Gottingen, minipig, in vivo, iv, 0.4 ug/kg, t1/2, formoterol 0.4 μg/kg IV in combination with budesonide, male 1-0771): 2.54 h | concentration at 0.0333 hr [7]: 0.41 ng/mL | concentration at 0.0833 hr [7]: 0.0996 ng/mL | concentration at 0.167 hr [7]: 0.0902 ng/mL | concentration at 0.333 hr [7]: 0.0689 ng/mL | concentration at 0.5 hr [7]: 0.057 ng/mL | concentration at 0.75 hr [7]: 0.0488 ng/mL | concentration at 1 hr [7]: 0.0813 ng/mL | concentration at 2 hr [7]: 0.0265 ng/mL | concentration at 4 hr [7]: 0.0183 ng/mL | concentration at 8 hr [7]: 0.00533 ng/mL | half-life (male, Gottingen, minipig, in vivo, t1/2, formoterol 0.4 μg/kg SC1 single site, combination, male 1-0771): 5.51 h | half-life (male, Gottingen, minipig, in vivo, t1/2, formoterol 0.4 μg/kg SC5 (5 sites), combination, male 1-0771): 4.19 h | absorption after SC administration (single site and divided over 5 sites, combination): well absorbed
